In test [1] the test system is Staphylococcus aureus. The test can be described thus: Antibacterial activity against methicillin-resistant Staphylococcus aureus infected in rabbit RBC assessed as reduction in alpha-heamolysin by absorbance based analysis. The format is functional, organism-based. The conditions noted are these: Erythrocyte.
The subject of test [2] is Staphylococcus aureus. The test can be described thus: Antibacterial activity against methicillin-resistant Staphylococcus aureus infected in rabbit RBC assessed as reduction in alpha-heamolysin at 0.25 times of MIC by absorbance based analysis. The format is functional, Erythrocyte. More on the design: scale not given: the % may be the effect or the level left.
Test [3] has as its system Staphylococcus aureus. The test can be described thus: Antibacterial activity against methicillin-resistant Staphylococcus aureus infected in rabbit RBC assessed as reduction in alpha-heamolysin at 0.5 times of MIC by absorbance based analysis. It is filed as functional, Erythrocyte. Further details: scale not given: the % may be the effect or the level left.
For test [4], the system named is Staphylococcus aureus. Kind of test: Antibacterial activity against methicillin-resistant Staphylococcus aureus infected in rabbit RBC assessed as reduction in alpha-heamolysin at 1 times of MIC by absorbance based analysis. The format is functional, Erythrocyte. Further details: scale not given: the % may be the effect or the level left.

This passage reports Activity results from ChEMBL document CHEMBL5346923, “Novel pyridinium cationic pleuromutilin analogues overcoming bacterial multidrug resistance” (Eur J Med Chem, 2023).

The structures appear in SMILES notation.

For `C=C[C@]1(C)C[C@@H](OC(=O)CSc2cc[n+](CCCCCCC)cc2)[C@]2(C)[C@H](C)CC[C@]3(CCC(=O)[C@H]32)[C@@H](C)[C@@H]1O.[I-]`, the Activity entry is “Dose-Dependent Effect” in the test on Staphylococcus aureus [1], 25% with Staphylococcus aureus [2], 34% with Staphylococcus aureus [3] and 93% in the test with Staphylococcus aureus [4].
